{"source": "paper PMC10977726", "about": "(PLOS ONE, 2024)", "key": {"[1]": {"biological_target": "T1, human IgG Fc (Homo sapiens, UniProt P01857)", "T1 construct": "Biotin-SP-ChromPure Human IgG, Fc fragment; purchased Jackson Immunoresearch Labs Inc. 009060008", "test": "SPR", "assay_type": "binding"}, "[2]": {"biological_target": "T1, human IgG Fc", "test": "Phage competition ELISA (synthetic DCP vs its own phage)", "assay_type": "binding", "conditions": "Table S12; synthetic DCP competing with its own phage for biotinylated human IgG Fc on neutravidin plate; absorbance 450 nm; averaged from at least three independent runs"}, "[3]": {"biological_target": "Ly6E-rat IgG Fc (UniProt P20761+Q16553)", "sequence (Q16553+P20761 fused)": "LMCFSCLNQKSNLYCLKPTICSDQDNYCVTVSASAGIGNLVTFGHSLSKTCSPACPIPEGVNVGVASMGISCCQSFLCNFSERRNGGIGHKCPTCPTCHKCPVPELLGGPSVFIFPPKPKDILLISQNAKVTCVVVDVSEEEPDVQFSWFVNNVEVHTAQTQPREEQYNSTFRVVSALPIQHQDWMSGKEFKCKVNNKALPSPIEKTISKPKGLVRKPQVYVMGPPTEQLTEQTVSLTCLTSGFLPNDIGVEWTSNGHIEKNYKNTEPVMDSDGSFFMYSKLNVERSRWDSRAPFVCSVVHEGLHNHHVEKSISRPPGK", "test": "SPR", "set-up": "species or system human", "conditions": "Table S17, first KD value, at least three independent runs, estimated values due to possible non-specific binding, read-out: KD against rat Fc-Ly6E", "description": "(§1) SPR measurements were carried out on a Biacore S200 instrument (GE Healthcare) with PBS-T (PBS with 0.05% Tween 20, pH 7.4) as the assay buffer as described previously. For kinetic measurements, biotinylated protein was captured on three separate sensor channels of a Series S SA Sensor chip (GE Healthcare). The chip was then blocked with 0.1 mg/mL free biotin. A concentration series of the DCP were injected to the chip. Data were double-referenced by subtracting the signal from a control sensor channel (coated with biotin only) and the signal from a buffer injection. Binding data were fitted using the manufacturer’s software (1:1 or two state binding model for single-cycle kinetics or steady-state model for multi-cycle kinetics)."}, "[4]": {"biological_target": "T2, PDGF bb (Homo sapiens, UniProt P01127)", "T2 construct": "purchased R&D Systems BT220-010/CF", "T2 sequence (P01127 82-190 limits assumed)": "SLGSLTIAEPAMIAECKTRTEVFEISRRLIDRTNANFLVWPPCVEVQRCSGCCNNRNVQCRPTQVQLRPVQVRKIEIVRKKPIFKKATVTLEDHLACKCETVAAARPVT", "test": "SPR", "conditions": "Table S16; SPR against PDGF bb; averaged from at least three independent runs; estimated KD values due to possible non-specific binding", "description": "as §1"}, "[5]": {"biological_target": "T3, human serum albumin (Homo sapiens, UniProt P02768)", "T3 construct": "purchased Rockland Immunochemicals, Inc. 009–0633", "T3 sequence (P02768 25-609)": "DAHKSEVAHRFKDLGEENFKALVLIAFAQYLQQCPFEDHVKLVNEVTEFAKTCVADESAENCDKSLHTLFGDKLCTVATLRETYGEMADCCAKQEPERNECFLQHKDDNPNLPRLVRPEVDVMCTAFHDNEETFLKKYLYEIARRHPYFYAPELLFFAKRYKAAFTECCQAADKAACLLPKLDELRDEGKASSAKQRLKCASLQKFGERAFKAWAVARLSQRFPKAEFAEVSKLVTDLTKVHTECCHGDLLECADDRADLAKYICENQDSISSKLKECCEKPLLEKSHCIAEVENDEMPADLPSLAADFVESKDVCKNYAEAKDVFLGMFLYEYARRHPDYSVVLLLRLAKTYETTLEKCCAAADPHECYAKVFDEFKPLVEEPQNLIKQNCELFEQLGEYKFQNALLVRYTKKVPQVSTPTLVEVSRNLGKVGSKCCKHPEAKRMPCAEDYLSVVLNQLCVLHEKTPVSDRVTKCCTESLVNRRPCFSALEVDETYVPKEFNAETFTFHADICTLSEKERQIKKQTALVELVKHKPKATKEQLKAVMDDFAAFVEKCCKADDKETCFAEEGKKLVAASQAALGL", "test": "Phage competition ELISA with phage displaying Hs-CHR-3", "assay_type": "binding", "conditions": "Fig 4H", "description": "To analyze the competitive binding to the target protein for the synthetic DCP and its phage counterpart displaying the same DCP, 384-well plates were coated with 2 μg/mL of neutravidin in PBS overnight at 4°C. The plates were blocked with PBS containing 0.5% BSA and incubated with biotinylated human IgG Fc or serum albumin for 20 min at room temperature. Serial diluted synthetic DCP was pre-incubated with phage for 30 min at room temperature then the mixture was added to the 384 well plates for 30 min at room temperature. The plates were washed and incubate with anti-M13 antibody (1:10,000, HRP conjugated, Creative Diagnostics, cat# CAB-655M) for 30 min at room temperature, followed by washing, development and quenching (1 M H3PO4). The absorbance at 450 nm was recorded to calculate the IC50 values.\nTo further map the binding epitopes of the Ig-DCPs on human IgG Fc, we developed a protein A-human IgG Fc competition ELISA. […] The findings imply Hs-CHR-1 and -3 bind to a similar epitope on human serum albumin, which partially overlap with the SA21 binding site (Fig 4I)."}, "[6]": {"biological_target": "T4, human VEGF-A (Homo sapiens, UniProt P15692)", "T4 construct": "biotin-VEGF-A (8–109, Genentech)", "T4 sequence (P15692 214-315)": "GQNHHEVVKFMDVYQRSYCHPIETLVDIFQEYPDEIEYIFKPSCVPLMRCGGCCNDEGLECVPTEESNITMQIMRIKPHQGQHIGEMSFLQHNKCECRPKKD", "test": "SPR", "assay_type": "binding"}}, "note": "Read-outs that look alike come from different tables or passages of the source. Where a SMILES comes first, the peptide text is derived from it. Bridges are numbered along the chain shown (N, C = ends)."}
{"smiles": "CC[C@H](C)[C@@H]1NC(=O)[C@H](C)NC(=O)[C@H](CO)NC(=O)[C@@H]2CSSC[C@@H]3NC(=O)[C@H](Cc4ccc(O)cc4)NC(=O)CNC(=O)[C@H](Cc4ccccc4)NC(=O)[C@H](CCC(N)=O)NC(=O)[C@H](CO)NC(=O)[C@H](CSSC[C@H](NC(=O)[C@H](CCC(=O)O)NC(=O)CNC(=O)[C@@H](N)C(C)C)C(=O)N[C@@H](C(C)C)C(=O)N[C@@H](CCCNC(=N)N)C(=O)NCC(=O)N[C@@H](CCCNC(=N)N)C(=O)N2)NC(=O)[C@H](CSSC[C@@H](C(=O)NCC(=O)O)NC(=O)[C@H](Cc2ccc(O)cc2)NC(=O)[C@H](CCCCN)NC(=O)[C@@H]2CCCN2C(=O)CNC(=O)[C@H](CCCCN)NC(=O)CNC3=O)NC(=O)[C@H](CO)NC1=O", "note": "[Ig-AMP-2] (H-VGECVRGRCSAISCCSQFGYCGKGPKYCG-OH; disulfide 4-15, 9-21, 14-28)", "values": [{"measurement": "KD", "setting": "[1]; Table S12, SPR Biacore S200, PBS-T pH 7.4, biotinylated protein on SA chip, averaged from at least three independent runs, N.A. = no detectable binding, * estimated value due to possible non-specific binding", "value": "aggregation"}]}
{"smiles": "CSCC[C@@H]1NC(=O)[C@H](Cc2ccc(O)cc2)NC(=O)[C@H](Cc2c[nH]c3ccccc23)NC(=O)[C@H](Cc2ccc(O)cc2)NC(=O)CNC(=O)[C@@H](NC(=O)CN)CSSC[C@@H]2NC(=O)CNC(=O)[C@H](C)NC(=O)[C@H](CC(C)C)NC(=O)[C@@H]3CSSC[C@@H](C(=O)NCC(=O)O)NC(=O)[C@H](CCC(=O)O)NC(=O)[C@@H]4CCCN4C(=O)[C@H](CCCCN)NC(=O)[C@@H]4CCCN4C(=O)[C@H](CCCNC(=N)N)NC(=O)[C@H](CSSC[C@H](NC(=O)[C@H](Cc4ccccc4)NC(=O)[C@H](Cc4c[nH]c5ccccc45)NC(=O)[C@H](CCC(N)=O)NC1=O)C(=O)N[C@@H](CCCCN)C(=O)N[C@@H](CCC(N)=O)C(=O)N[C@@H](CC(=O)O)C(=O)N[C@@H](CO)C(=O)N[C@@H](CC(=O)O)C(=O)N3)NC(=O)[C@H](C(C)C)NC2=O", "note": "[Ig-EET-4]", "values": [{"measurement": "Kd", "setting": "[1]; Table S12, SPR Biacore S200, PBS-T pH 7.4, biotinylated protein on SA chip, averaged from at least three independent runs, N.A. = no detectable binding, * estimated value due to possible non-specific binding, read-out: KD", "value": 948, "unit": "nM"}, {"measurement": "IC50", "setting": "[2]", "value": 823, "unit": "nM"}]}
{"smiles": "CC[C@H](C)[C@@H]1NC(=O)[C@H](C)NC(=O)[C@@H](NC(=O)CN)CSSC[C@@H]2NC(=O)CNC(=O)[C@H](C)NC(=O)[C@H](CC(C)C)NC(=O)[C@@H]3CSSC[C@@H](C(=O)NCC(=O)O)NC(=O)[C@H](Cc4ccccc4)NC(=O)CNC(=O)[C@H](CC(N)=O)NC(=O)[C@@H]4CCCN4C(=O)CNC(=O)[C@H](CSSC[C@H](NC(=O)[C@H](CCC(N)=O)NC(=O)[C@H](Cc4ccccc4)NC(=O)[C@H](CCSC)NC(=O)[C@H](Cc4c[nH]c5ccccc45)NC(=O)CNC(=O)[C@H](CCSC)NC(=O)[C@H](Cc4c[nH]cn4)NC(=O)[C@H](Cc4ccc(O)cc4)NC1=O)C(=O)N[C@@H](CCCCN)C(=O)N[C@@H](CCC(N)=O)C(=O)N[C@@H](CC(=O)O)C(=O)N[C@@H](CO)C(=O)N[C@@H](CC(=O)O)C(=O)N3)NC(=O)[C@H](C(C)C)NC2=O", "note": "[L-EET-7]", "values": [{"measurement": "Kd", "setting": "[3]", "value": 22, "unit": "nM"}]}
{"smiles": "CC[C@H](C)[C@@H]1NC(=O)[C@H](Cc2ccccc2)NC(=O)[C@@H]2CCCN2C(=O)[C@H](CC(N)=O)NC(=O)[C@H](CC(=O)O)NC(=O)[C@H](CC(=O)O)NC(=O)[C@H](Cc2ccccc2)NC(=O)[C@@H](NC(=O)CN)CSSC[C@@H]2NC(=O)CNC(=O)[C@H](C)NC(=O)[C@H](CC(C)C)NC(=O)[C@@H]3CSSC[C@@H](C(=O)NCC(=O)O)NC(=O)[C@H](Cc4c[nH]c5ccccc45)NC(=O)[C@H]([C@@H](C)O)NC(=O)[C@H](CC(=O)O)NC(=O)[C@H](Cc4ccc(O)cc4)NC(=O)[C@H](Cc4c[nH]c5ccccc45)NC(=O)[C@H](CSSC[C@H](NC(=O)[C@H](C)NC1=O)C(=O)N[C@@H](CCCCN)C(=O)N[C@@H](CCC(N)=O)C(=O)N[C@@H](CC(=O)O)C(=O)N[C@@H](CO)C(=O)N[C@@H](CC(=O)O)C(=O)N3)NC(=O)[C@H](C(C)C)NC2=O", "note": "[P-EET-6] (H-GCFDDNPFIACKQDSDCLAGCVCWYDTWCG-OH; disulfide 2-21, 11-23, 17-29)", "values": [{"measurement": "Kd", "setting": "[4]", "value": "> 6700", "unit": "nM"}]}
{"smiles": "CC[C@H](C)[C@H](NC(=O)[C@H](CC(C)C)NC(=O)[C@@H](N)CCCNC(=N)N)C(=O)N[C@@H](CCC(=O)O)C(=O)N[C@@H](CC(=O)O)C(=O)N[C@H](C(=O)N[C@H]1CSSC[C@@H](C(=O)N[C@@H](CC(C)C)C(=O)N[C@@H](Cc2c[nH]c3ccccc23)C(=O)N[C@@H](CCC(=O)O)C(=O)N[C@@H](CC(=O)O)C(=O)N[C@@H](CC(=O)O)C(=O)O)NC(=O)CNC(=O)[C@H](Cc2c[nH]c3ccccc23)NC(=O)[C@H](CCCNC(=N)N)NC(=O)[C@@H]2CCCN2C(=O)[C@H](CC(C)C)NC1=O)[C@@H](C)CC", "note": "[SA21] (H-RLIEDICLPRWGCLWEDD-OH; disulfide 7-13 (inferred); N-terminus and C-terminus assumed)", "values": [{"measurement": "inhibition of interaction between biotinylated human serum albumin and phage displaying Hs-CHR-3", "setting": "[5]", "value": "partially disrupted"}]}
{"smiles": "CC[C@H](C)[C@@H]1NC(=O)[C@H](C(C)C)NC(=O)[C@H](Cc2c[nH]cn2)NC(=O)[C@H](Cc2ccc(O)cc2)NC(=O)[C@H](CCC(=O)O)NC(=O)[C@H](CCC(N)=O)NC(=O)[C@H](CC(=O)O)NC(=O)[C@H]([C@@H](C)O)NC(=O)[C@H](C)NC(=O)[C@H](Cc2c[nH]c3ccccc23)NC(=O)[C@H](C(C)C)NC(=O)[C@H](C)NC(=O)[C@H](CO)NC(=O)[C@@H]2CSSC[C@@H]3NC(=O)[C@H](CO)NC(=O)CNC(=O)[C@H]([C@@H](C)O)NC(=O)[C@H](CSSC[C@H](N)C(=O)N[C@@H](CCCCN)C(=O)NCC(=O)N[C@@H](CCCCN)C(=O)NCC(=O)N[C@@H](C)C(=O)N[C@@H](CCCCN)C(=O)N2)NC(=O)[C@H](CSSC[C@@H](C(=O)O)NC(=O)[C@H](CCCCN)NC(=O)CNC(=O)[C@H](CO)NC(=O)[C@H](CCCNC(=N)N)NC3=O)NC1=O", "note": "[V-CON-1]", "values": [{"measurement": "Kd", "setting": "[6]", "value": "> 4600", "unit": "nM"}]}
{"smiles": "CC[C@H](C)[C@@H]1NC(=O)[C@H]([C@@H](C)O)NC(=O)[C@H](Cc2ccccc2)NC(=O)[C@@H]2CCCN2C(=O)[C@H](Cc2ccccc2)NC(=O)[C@H](Cc2c[nH]c3ccccc23)NC(=O)[C@@H]2CCCN2C(=O)[C@H]([C@@H](C)O)NC(=O)[C@H](CCSC)NC(=O)[C@@H](NC(=O)CN)CSSC[C@@H]2NC(=O)CNC(=O)[C@H](C)NC(=O)[C@H](CC(C)C)NC(=O)[C@@H]3CSSC[C@@H](C(=O)NCC(=O)O)NC(=O)[C@H](Cc4ccccc4)NC(=O)CNC(=O)[C@H](CC(N)=O)NC(=O)[C@@H]4CCCN4C(=O)CNC(=O)[C@H](CSSC[C@H](NC(=O)[C@H](CC(N)=O)NC1=O)C(=O)N[C@@H](CCCCN)C(=O)N[C@@H](CCC(N)=O)C(=O)N[C@@H](CC(=O)O)C(=O)N[C@@H](CO)C(=O)N[C@@H](CC(=O)O)C(=O)N3)NC(=O)[C@H](C(C)C)NC2=O", "note": "[V-EET-3] (H-GCMTPWFPFTINCKQDSDCLAGCVCGPNGFCG-OH; disulfide 2-23, 13-25, 19-31)", "values": [{"measurement": "Kd", "setting": "[6]; Table S16, SPR against VEGF-A, averaged from at least three independent runs, estimated KD values due to possible non-specific binding, read-out: KD", "value": "> 1500", "unit": "nM"}]}
{"smiles": "CSCC[C@@H]1NC(=O)[C@H](CC(C)C)NC(=O)[C@H](CCCNC(=N)N)NC(=O)[C@H](CO)NC(=O)[C@@H]2CSSC[C@@H]3NC(=O)[C@H](CO)NC(=O)CNC(=O)[C@H]([C@@H](C)O)NC(=O)[C@H](CSSC[C@H](N)C(=O)N[C@@H](CCCCN)C(=O)NCC(=O)N[C@@H](CCCCN)C(=O)NCC(=O)N[C@@H](C)C(=O)N[C@@H](CCCCN)C(=O)N2)NC(=O)[C@H](CSSC[C@@H](C(=O)O)NC(=O)[C@H](CCCCN)NC(=O)CNC(=O)[C@H](CO)NC(=O)[C@H](CCCNC(=N)N)NC3=O)NC(=O)[C@H](CC(=O)O)NC(=O)[C@H](Cc2ccc(O)cc2)NC1=O", "note": "[W T CON, reference compound]", "values": [{"measurement": "Kd", "setting": "[1]", "value": "> 20000", "unit": "nM"}]}
